Reference: US4242330A, “Derivative of aspirin” (The University of Kentucky Research Foundation, priority 1979, dated 1980)

Key:
[1] = rate of generation of aspirin via hydrolysis, determined spectrophotometrically at 285 nm; type: physicochemical; settings: for half-life: buffer, read-out: half-life of hydrolysis to aspirin (t1/2); for half-life / half-life of hydrolysis to aspirin (t1/2): average of three determinations
Method: Therefore, the decrease in absorbance of a solution containing both the prodrug of this invention and aspirin observed at 285 nanometers upon adjustment of the pH to a value of six is proportional to the amount of aspirin in the solution.
Accordingly, the rate of generation of aspirin via hydrolysis of the derivative of the present invention was determined spectrophotometrically at 285 nm. Solutions of 1-O-(2'-acetoxy)benzoyl-α-D-2-deoxyglucopyranose in a buffered solution containing 5 mg/ml were freshly prepared and maintained at constant temperature in a circulating waterbath. […] Buffers employed were hydrochloric acid (pH 1 to 2), citrate (pH 3), acetate (pH 4 to 6) and phosphate (pH 7-9). Ionic strength was adjusted with potassium chloride (usually to 0.1). The change in absorbance at 285 nm was followed until no change in absorbance was observed. First order plots were constructed by plotting log (At -A.infin.) agains time. The effect of pH on the rate of hydrolysis was determined using solutions ranging from pH 1.2 to pH 9.
*Each halflife is the average of three determinations.

[2] = rate of hydrolysis by following the rate of appearance of aspirin in solution by high pressure liquid chromatography; type: physicochemical; settings: HPLC; pH and temperature not given
Method: The rate of hydrolysis of 1-O-(2'-acetoxy)benzoyl-α-D-glucopyranose, i.e., the compound of the formula [drawing 4] was determined by following the rate of appearance of aspirin in a solution by high pressure liquid chromatography.

[3] = cited from earlier work

SMILES | half-life ([1]; pH 3, pH 3, 37° C) [min] | half-life ([1]; pH 4.6, pH 4.6, 37° C) [min] | half-life ([1]; pH 8, pH 8, 37° C) [min] | half-life ([1]; pH 9, pH 9, 37° C) [min] | half-life of hydrolysis to aspirin (t1/2) ([1]; pH 6.4, 37° C) [min] | half-life of hydrolysis to aspirin (t1/2) ([1]; pH 8, 37° C) [min] | effect of pH on the generation of aspirin from the derivative ([1]; solutions ranging from pH 1.2 to pH 9) | half-life [2] [h] | hydrolysis product ([3]; reaction scheme (II)) | rate of hydrolysis to aspirin ([3]; to the extent that hydrolysis to aspirin takes place)
CC(=O)Oc1ccccc1C(=O)O[C@@H]1C[C@@H](O)[C@H](O)[C@@H](CO)O1 [1-O-(2'-acetoxy)benzoyl-α-D-2-deoxyglucopyranose] | 7 | 7.1 | 7 | 7 | 7.0 | 7.02 | independent of the pH of the solutions | – | – | –
CC(=O)Oc1ccccc1C(=O)O[C@H]1O[C@H](CO)[C@@H](O)[C@H](O)[C@H]1O [1-O-(2'-acetoxy)benzoyl-α-D-glucopyranose] | – | – | – | – | – | – | – | 55 | tends to hydrolyze so as to form the corresponding sugar derivative of salicylic acid | very slow rate
